Reference: patent US12691183B2, “Methods of making and using nanoparticles for treatment of bacterial biofilm” (Brown University, priority 2022, dated 2026)
Where a name gives a salt, the structure may show the parent alone.

Tests used:
V. vulnificus [1] = experiment: MIC microdilution assay against planktonic bacteria; format: cell-based; settings: Vibrio vulnificus, 16-18 hours, Doxy or loaded Doxy concentration
Experimental: The minimum inhibitory concentrations (MICs) of NPs against V. vulnificus were determined using the microdilution assay as previously reported. See T. Gwisai, N. R. Hollingsworth, S. Cowles, N. Tharmalingam, E. Mylonakis, B. B. Fuchs and A. Shukla, Biomedical Materials, 2017, 12, 045010; D. Alkekhia and A. Shukla, Journal of Biomedical Materials Research Part A, 2019, 107, 1324-1339. Free Doxy and Doxy loaded NPs were diluted 2-fold in LB in 96-well plates to obtain concentrations of Doxy or loaded Doxy ranging from 0.03-4.0 μg/mL. V. vulnificus in LB media in its logarithmic growth phase was added to each well at a final concentration of 1×10^5 colony forming units (CFU)/mL. Positive control (PC) of bacteria cultured in LB only and negative control (NC) of LB without bacteria were included. After 16-18 hours of shaking (100 rpm) at 37° C., OD600 was measured using a plate reader. The normalized bacteria density (%) was calculated as follows: […]

V. vulnificus biofilm [2] = experiment: Inhibition of biofilm formation, crystal violet staining; format: cell-based; settings: inhibits biofilm formation by 80%, 24-hour incubation
Experimental: The investigate the effect of free Doxy and Doxy-loaded NPs on V. vulnificus biofilm formation, V. vulnificus was prepared for biofilm formation. When adding the bacteria in its logarithmic growth phase to 96-well plates, free Doxy or Doxy-loaded NPs were added simultaneously at varying concentrations. Bacteria lacking Doxy treatment were included as a PC and LBS without bacteria was included as a NC. Following a 24-hour incubation in static conditions, the biofilm biomass was quantified using crystal violet staining. Briefly, the supernatant media was gently removed, and biofilms were washed three times with 1×PBS. Next biofilms were stained with 200 μL 0.1% (w/v) crystal violet in 1×PBS for 15 minutes, followed by three 1×PBS washes. The stain was eluted by incubation with 200 μL of 100% ethanol with shaking (100 rpm) for 2 min at RT. The absorbance at 570 nm (OD570) was measured using a plate reader. Normalized biofilm biomass was calculated as follows: [formula]

V. vulnificus biofilm [3] = experiment: Eradication of mature biofilm, crystal violet assay; format: cell-based; settings: reduces initial biomass of 48 h mature biofilm by 90%, 24 h treatment
Experimental: Unless otherwise noted, all biofilm experiments utilized the following procedure for the formation of a 48 h matured biofilm. V. vulnificus inoculated LB medium was incubated for 18 h with shaking (100 rpm) at 37° C. This bacteria suspension was dilute 1:500 (v/v) in LB media supplemented with 2% w/v NaCl (LB S) at pH 5.5. The optical density of the bacteria suspension at 600 nm (OD600) was monitored overtime. Once in its logarithmic growth phase (OD600=0.1, which is ~1.5×10^7 CFU/mL), biofilms were formed by static incubation of bacteria at 37° C. for 48 hours either in chamber slides of multi-well plates. Every 24 hours, the biofilms were gently washed three times with 1×PBS and add fresh LBS was added.
(§1) The effect of treatment with free Doxy, Doxy-GNP, CS-Doxy-GNP, and HA-CS-Doxy-GNP of 48 h aged V. vulnificus biofilms was assessed by examining biofilm morphology and quantifying biomass and cell viability. Morphology assessment via ESEM, LIVE/DEAD viability staining, colony enumeration and crystal violet staining were performed after incubation of the biofilms with the various treatment groups at a Doxy concentration of 50 μg/mL in 1×PBS or with a 1×PBS control for 24 hours at 37° C.
Biofilm biomass was assessed for 48 h mature biofilms formed in 96-well plates. […] Following 24 hours of incubation, the biofilm biomass was quantified using crystal violet staining as described earlier.

V. vulnificus biofilm [4] = experiment: Colony counting assay of treated mature biofilm; format: cell-based; settings: 50 μg/mL Doxy, 24 h
Experimental: as §1, with “C. Colony enumeration was also conducted by first dispersing biofilms formed in 48-well plates by sonication following treatment. Each sample was then serially diluted in LB, and […] of the dilution was plated onto LB agar plates. Agar plates were imaged and CFU were counted following incubation for 24 h at 37° C.” for “C.”

V. vulnificus [5] = experiment: Ex vivo pig skin infection model; format: cell-based
Experimental: Frozen porcine skin tissue was thawed and washed with 1×PBS. A biopsy punch (8 mm) was used to create tissue sections from freshly thawed tissue. A 1.5-mm deep well was created in the center of each of these skin samples using a smaller 3-mm biopsy punch. The tissue pieces were sterilized by immersing in 70% (v/v) ethanol for 2 hours and drying for 30 minutes in a CellGard™ Energy Saver class II, type A2 biosafety cabinet (NuAire, Plymouth, MN). The sterile tissue was then placed on soft TSB agar plates containing 0.5% (w/v) agar with 100 μg/mL vancomycin. Note that vancomycin was included as a common antibiotic against gram-positive to prevent contamination by non-V. vulnificus bacteria. The skin was then infected by adding 10 μL of V. vulnificus suspension (OD600=0.1) in the 3 mm diameter well in each sample. The inoculated skin pieces were incubated for 48 hours at 37° C. in a humidified chamber. The tissue samples were transferred to a new agar plate every 24 hours. At 48 hours, 15 μL of Doxy or HA-CS-Doxy-GNP at a Doxy concetration of 10, 50 or 100 μg/mL was added to the infected skin samples and incubated for a further 24 hours. Controls of tissue inoculated with bacteria treated with LBS at pH 5.5 only and tissue without bacteria treated with LBS at pH 5.5 were included as controls. […]

HUVEC = experiment: CCK-8 cytotoxicity assay, HUVEC; format: cell-based, human; settings: 50 μg/mL Doxy, 24 hour
Experimental: (§2) The cytotoxicity of each NP formulation was evaluated for HUVEC and […] using a CCK-8 viability assay. Briefly, HUVEC and NIH 3T3 cells were cultured at a density of ~5000 cells/cm^2 in EGM-2 endothelial cell growth medium and DMEM supplemented with 10% (v/v) FBS and 1% (v/v) penicillin/streptomycin, respectively at 37° C. with 5% CO2. After 24 hours, cells were treated with Doxy, Doxy-GNPs, CS-Doxy-GNP and HA-CS-Doxy-GNP at a Doxy concentration of 50 μg/mL in the respective media. Cells treated with media only and wells containing no cells or NPs were included as PCs and NCs, respectively. Following a 24 hour incubation, the media was removed, cells were rinsed with 1×PBS three times and 10 μL of CCK-8 solutions was added to each well. After incubation for 4 hours at 37° C. with 5% CO2, the absorbance was read at 450 nm (OD450) using a plate reader. Normalized cell viability was calculated using the following equation. [formula]

NIH 3T3 cells = experiment: CCK-8 cytotoxicity assay, NIH 3T3; format: cell-based, mouse; settings: NIH 3T3, 50 μg/mL Doxy, 24 hour
Experimental: as §2

Q: What does the source list for `C[C@H]1c2cccc(O)c2C(=O)C2=C(O)[C@]3(O)C(=O)C(C(N)=O)=C(O)[C@@H](N(C)C)[C@@H]3[C@@H](O)[C@@H]21` [Doxy, doxycycline hydrochloride]?
A: MIC (V. vulnificus [1]): 0.5 µg/mL; MBIC80 (V. vulnificus biofilm [2]): about 16 μg/mL; MBEC90 (V. vulnificus biofilm [3]): about 50 μg/mL; reduction in CFU compared to no treatment control (V. vulnificus biofilm [4]): 2 log reduction; number of living bacterial cells compared with untreated pig skin (V. vulnificus [5]; 50 μg/mL or 100 μg/mL Doxy, 24 hours): significantly reduced; mean value of CFU/mL relative to untreated samples (100%) (V. vulnificus [5]; 2 days infection, 24 hours treatment, 100 μg/mL Doxy): 16.42%; cell viability (HUVEC): about 60%; cell viability (NIH 3T3 cells): about 70%
